Reference: patent US20230382915A1, “GCN2 AND PERK KINASE INHIBITORS AND METHODS OF USE THEREOF” (Deciphera Pharmaceuticals, LLC, priority 2021, published 2023)

Experiments:
[1] = test system: RPMI8226 Multiple Myeloma cells; assay: Cell proliferation, combination with standard of care, RPMI8226; type: cell-based; conditions: Homo sapiens, RPMI-8226; with 333 nM dexamethasone, 96 h, FIG. 6A; read-out: inhibition of cell proliferation IC50, combination treatment
Protocol: H929, RPMI8226, GA-10 and DoHH-2 cells (catalog #CRL-9068) were obtained from the American Type Culture Collection (ATTC, Manassas, VA). H929 Cells were maintained in RPMI-1640 medium supplemented with 20% heat-inactivated fetal bovine serum (catalog #A3840002, ThermoFisher Scientific, Waltham, MA), 1% Penicillin/Streptomycin/L-Glutamine (catalog #10378016, ThermoFisher Scientific, Waltham, MA), and 0.05 mM 2-mercaptoethanol (catalog #21985-023, ThermoFisher Scientific, Waltham, MA). […]
For cell proliferation assay appropriate number of cells (Forty thousand cells for H929. Twenty thousand cells for RPMI8226 and GA-10. Eight thousand cells for DoHH-2) were seeded per well in 200 μL in respective medium were dispensed into a 96-well black clear bottom plate. […] Plates were read on a Synergy2 or equivalent reader (Biotek, Winooski VT) using an excitation of 540 nm and an emission of 600 nm. At the end of the incubation of DoHH-2, cell viability was determined using CellTiter-Glo® assay (Promega, Madison, WI). Luminescence was measured using EnVision MultiLabel Reader (PerkinElmer, Waltham, MA). Data was analyzed using GraphPad Prism software (GraphPad, San Diego, CA) to calculate IC50 values.

[2] = test system: ATF4 target genes in H929 multiple myeloma cells; assay: H929 UPR/ISR target genes quantitative RT-PCR; type: cell-based
Protocol: H929 multiple myeloma cells (catalog #CRL-9068) multiple myeloma cells were obtained from the American Type Culture Collection (ATTC, Manassas, VA). Cells were grown in RPMI-1640 medium supplemented with 20% heat-inactivated fetal bovine serum (catalog #A3840002, ThermoFisher Scientific, Waltham, MA), 1% Penicillin/Streptomycin/L-Glutamine (catalog #10378016, ThermoFisher Scientific, Waltham, MA), and 0.05 mM 2-mercaptoethanol (catalog #21985-023, ThermoFisher Scientific, Waltham, MA) at 37° C., 5% CO2, and 95% humidity. Cells were expanded until reaching 70-95% confluency at which point they were subcultured or harvested for assay use. Cells were seeded in 6-well culture plate at 3.0×10^6 cells per well in 2 mL complete growth medium and incubated with indicated concentrations of Compound 2 at 37° C., 5% CO2, and 95% humidity for 4 h. At the end of the incubation, cells were washed with PBS (Sigma) and RNA was extracted using RNeasy® Plus Kits (Qiagen, Germantown, MD). cDNA was synthesized using the High-Capacity cDNA Reverse Transcription Kit (Applied Biosciences, Beverly Hills, CA), and quantitative PCR was performed on a QuantStudio 3 (Applied Biosciences) using TaqMan Assays (Table 1, Thermo) and TaqMan Fast Advanced Master Mix (Thermo) according to manufacturer's specifications.

In the case of `Cn1cc(-c2cccc(NS(=O)(=O)c3cc(Cl)cc(CO)c3Cl)c2F)c2c(N)ncnc21` [Example 2, N-(3-(4-amino-7-methyl-7H-pyrrolo[2,3-d]pyrimidin-5-yl)-2-fluorophenyl)-2,5-dichloro-3-(hydroxymethyl)benzenesulfonamide], the IC50 [1] is reported as 7 nM, the “maximum stimulation for ATF4 (gene expression)” value ([2]; 4 h, fold change over DMSO) is reported as ~3 folds and the “maximum stimulation for CHOP (gene expression)” value ([2]; 4 h, fold change over DMSO) is reported as ~10 folds. For the same compound, the “maximum stimulation for GADD34 (gene expression)” value ([2]; 4 h, fold change over DMSO) was ~3 folds, the “maximum stimulation for GPT2 (gene expression)” value ([2]; 4 h, fold change over DMSO) was ~3 and the “maximum stimulation for VEGFA (gene expression)” value ([2]; 4 h, fold change over DMSO) was ~2 folds. The “concentrations at which ATF4 target gene expression reverted to basal levels” value ([2]; FIG. 4, inhibitory phase) was ≥ 370 nM.
